The record followed here is US20160199434A1, “COMPOSITIONS AND METHODS FOR MODULATING DNA METHYLATION” (OHIO STATE INNOVATION FOUNDATION, priority 2013, published 2016).

Entries after “also recorded” stand apart in the source; their conditions may differ.

Series [1] concerns DNMT-3a. The series is described as follows: DNMT-3a mRNA expression by RT-PCR in PyMT tumor cells. Format: cell-based, mouse. The note with it: for DNMT-3a mRNA expression: PyMT tumor cells, 24 hours, compared to DMSO (FIG. 1A). On the procedure: FIGS. 1A-1E show DNA methyltransferase mRNA expression in vitro and in vivo. […] PyMT tumor cells were left untreated, were treated with DMSO, or were treated with AKB-6899 (10, 25, or 50 μM) for 24 hours. The cells were subjected to Trizol extraction to recover total RNA. cDNA was synthesized for RT-PCR of DNMT-1 and DNMT-3a mRNA expression. […] Human MDA-MB-231 tumor cells were left untreated, were treated with DMSO, or were treated with AKB-6899 (25 μM) for 24 hours. Total RNA was isolated for RT-PCR. FIG. 1C (DNMT-1), FIG. 1D (DNMT-3a), and FIG. 1E (DNMT-3b) compare the effect of AKB-6899 with the effect of 5-aza-2′deoxycytidine (5-AZA) as assessed by RT-PCR in human cervical tumors implanted in mice that were either untreated (UTX), treated with DMSO, treated with 5-AZA, or treated with AKB-6899 (17.5 mg/kg).
Because DSP is regulated by ER/PR expression, and because late-stage PyMT tumors lose ER/PR-positivity and heavily metastasize to the lymph nodes and lungs (Lin et al., 2003), the effects of AKB-6899 on more global events that regulate gene expression was evaluated. PyMT tumor cells in culture were treated with DMSO or AKB-6899. Methylation-specific PCR for CpG islands in the desmoplakin promoter were performed. […] Trypan Blue confirmed no cell death in AKB-6899 treated cells when compared to control cells. The experiment was repeated and RNA was isolated from the cells. RT-PCR was performed and the regulation of DNA methyltransferases (DNMTs) was evaluated. […] (FIG. 1A). The decrease in mRNA levels of DNMT-1 and DNMT-3a increased the mRNA level of DSP (FIG. 4A) and increased desmoplakin protein expression (FIG. 5A).

Series [2] relates to desmoplakin (DSP) gene promoter. Nature of the series: Methylation of DSP promoter in C8161.9 melanoma cells. The series is classed as cell-based, human. The procedure:
(§1) FIGS. 3A-3E show the effect of AKB-6899 (25 μM) on methylation of the desmoplakin (DSP) gene promoter in PyMT breast cancer cells (3A), human MDA-MB-231 triple negative breast cancer cells (3B), human C8161.9 melanoma cells (3C), and human MCF-7 breast cancer cells (3D). In FIG. 3A, the DSP promoter was 100% unmethylated (AKB-6899) vs. 99.99% methylated (vehicle). In FIG. 3B, the DSP promoter was 99.62% unmethylated (AKB-6899) v. 99.89% (vehicle). In FIG. 3C, the DSP promoter was 99.90% unmethylated (AKB-6899) v. 42.04% (vehicle). In FIG. 3D, the DSP promoter was 92.48% unmethylated (AKB-6899) v. 98.48% (vehicle). In FIG. 3E, when compared to the vehicle (DMSO), treatment of PyMT cells with AKB-6899 increased DSP expression.
(§2) The gene expression signatures from the tumors of PyMT breast tumor-bearing mice that were treated with either vehicle or AKB-6899 were evaluated. […] Methylation-specific PCR on the desmoplakin promoter was performed. The level of hypomethylation was near complete.

The test system is the same in series [3]. The series is described as follows: Methylation of DSP promoter in MCF-7 breast cancer cells. Format: cell-based, human. The procedure:
as §1, §2

Another series relates to DSP promoter. Nature of the series: Percent CpG methylation of DSP promoter in HeLa cells. Format: cell-based, human. Conditions: 5 or 25 μM, compared to DMSO and PBA (FIG. 6B). On the procedure: HeLa cervical cancer cells were left untreated, were treated with DMSO, were treated with 5-AZA, were treated with AKB-6899 (5 or 25 μM), or were treated with PBA (2 mM).
Series [4] concerns DNMT-3a. Nature of the series: DNMT-3a transcription in H1703 lung cancer cells. The note with it: H1703 cells in vitro, dose-dependent (FIG. 10A). The series is classed as cell-based, human. The text has this:
(§3) In FIG. 10A, AKB-6899 inhibited DNMT-1, DNMT-3a, and DNMT-3b transcription in a dose-dependent manner in human squamous cell carcinoma lung cancer cells (H1703), in vitro. The DMSO-treated DNMT mRNAs are over 1.0, meaning the level of expression is higher than the housekeeping control gene, CAP1. In FIG. 10B, AKB-6899 inhibited DNMT-3a and DNMT-3b transcription in human adenocarcinoma lung cancer cells (A549). The DMSO-treated DNMT mRNAs are under 1.0, meaning the level of expression is lower than the housekeeping control gene, CAP1.

Series [5] has as its system DNMT-3a. The series is described as follows: DNMT-3a transcription in A549 lung cancer cells. Format: cell-based, human. The note with it: A549 cells (FIG. 10B).
From the text: as §3

Series [6] has as its system panel of 14 common tumor suppressor genes. Nature of the series: mRNA expression of 14 tumor suppressor genes in H1703 cells. Format: cell-based, human. The text has this:
FIGS. 12A-12D show the level of mRNA expression for a panel of 14 common tumor suppressor genes in two types of human lung cancer cells (i.e., H1703 squamous cell carcinoma in FIG. 12A and A549 adenocarcinoma in FIG. 12B). […] All of the tumor suppressor mRNAs were augmented in response to AKB-6899 but one, the CDKN1C gene in A549 adenocarcinoma cells, in which expression levels were 0.1 (AKB10) and 0.9 (AKB50) compared to DMSO standardized to 1.0. In FIGS. 12A-12B, the following apply: “1”=DMSO, “2”=AKB-6899 (10 μM), “3”=AKB-6899 (50 μM), and “4”=combination of Decitabine (5 μM)/PBA (2 mM). FIGS. 12C and 12D are raw values for mRNA expression of these 14 genes.

For the next series, the system named is BEAS-2B cells. The series is described as follows: XTT cell survival assay, normal lung epithelial cells. Conditions: BEAS-2B normal lung epithelial cells, even at the highest dose (FIG. 13A). The series is classed as cell-based. The text has this:
FIGS. 13A-13B show XTT cell survival assays for normal lung epithelial cells (BEAS-2B) and lung cancer cells (H1703 squamous cell carcinoma and A549 adenocarcinoma) in response to increasing doses of AKB-6899.
In general terms: Formazan colour is commonly taken as a measure of viable cells.

A further series has as its system DNMT-1. The series is described as follows: DNMT-1 mRNA expression in lungs of normal mice after systemic administration. The series is classed as in vivo, mouse. Conditions: i.p. 17.5 mg/kg three times per week for three weeks, vs DMSO. On the procedure: FIGS. 14A-14C show the effects of systemic administration of AKB-6899. Mice were treated three times per week for three weeks with either i.p. AKB-6899 or i.p. DMSO. The lungs were removed and assayed to determine DNMT mRNA expression, percent CpG methylation, and fold change in mRNA. […] The data was standardized to 1.0 by the DMSO levels of the respective gene expression, (n=4 lungs per condition).

On to `O=C(O)CNC(=O)c1ncc(-c2cccc(F)c2)cc1O` [AKB-6899, {[5-(3-Fluorophenyl)-3-hydroxypyridine-2-carbonyl]amino}acetic acid], for which the “DNMT-3a mRNA level” value with DNMT-3a [1] (PyMT tumor cells in culture, concentration not given) is recorded as “significant decreases; also recorded: downregulated”. Also, the “DNMT-3a mRNA expression” value with DNMT-3a [1] (25 μM) and in the series on DNMT-3a [1] (50 μM) was “significantly inhibited” each time. For the same compound, the DSP promoter unmethylated came out at 99.90% in [2] (C8161.9 melanoma cells, 25 μM (FIG. 3C)) and 92.48% in series [3] (25 μM (FIG. 3D)). Also, the “level of hypomethylation of desmoplakin promoter (in words)” value in [2] (C8161.9 melanoma tumor cells) and in [3] was “near complete” in each case. The “demethylation of DSP promoter (percent CpG methylation)” value in the series with DSP promoter is “increase in demethylation”. Besides, the DNMT-3a transcription entry in the series with DNMT-3a [4] and in the series on DNMT-3a [5] was “inhibited” in each case. In series [6] (H1703, 10 μM and 50 μM, vs DMSO), the “tumor suppressor mRNA expression” value is listed as “augmented”. For the same compound, the “induction of mRNA expression in H1703 compared with A549” value in series [6] (H1703 vs A549, Decitabine 5 μM/PBA 2 mM) is given as “more effective”. The cell survival result in the series on BEAS-2B cells is on record as “no significant decrease”. Further, in the series on DNMT-1, the “DNMT-1 expression in lungs” value is given as “inhibited”.
